# Experimental data taken from patent publication US9561228B2 (Celgene Avilomics Research, Inc., priority 2013, dated 2017).
# pEC50: −log10 of the molar value.
# Tests used:
# Type in all cases: cell-based
# [1] = test system: ERK1/2 phosphorylation of p90RSK in A375 cells; experiment: Detection of total and phosphor-RSK by MSD ELISA (A375); details: Homo sapiens, A-375, read-out: ERK1/ERK2 PRSK A375 EC50
# Outline: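 A375 cells serum-starved overnight in DMEM/0.1% FBS, then treated 2 h at 37° C with compound (1000× DMSO dilutions into medium). Lysates captured on RSK antibody-coated MSD plates; phospho-RSK (Ser380) and total RSK detected with SulfoTag secondary antibodies by electrochemiluminescence.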
# [2] = test system: HT-29 cells (colorectal adenocarcinoma); experiment: Inhibition of cancer cell proliferation, HT-29 (CellTiterGlo, 72 hours); details: Homo sapiens
# Outline: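 HT-29 cells seeded at 3000/well, then treated with 3-fold serial dilutions from a 5,000 nM two-fold solution in serum-free RPMI1640, untreated wells as control, for 72 h at 37° C. CellTiterGlo luminescence converted to cell number via a standard curve; GI50 from percent inhibition versus untreated growth.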
# [3] = test system: HCT116 cells (colorectal carcinoma); experiment: Inhibition of cancer cell proliferation, HCT116 (CellTiterGlo, 72 hours); details: Homo sapiens, HCT-116
# Outline: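 3000 cells per well exposed to 3-fold serial compound dilutions from 5,000 nM (two-fold solution, stock level) for 72 hours at 37° C. CellTiterGlo luminescence converted to cell number via a standard curve; percent inhibition vs untreated wells, GI50 by curve fit.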
pEC50 [1],GI50 [2] [nM],GI50 [3] [nM],SMILES
> 7.00,501 to 999,101 to 500,"C=CC(=O)Nc1cc(OC)ccc1Nc1nc(Nc2cc(OC)ncc2C)ncc1C(F)(F)F [Compound I-284, N-(5-Methoxy-2-((2-((2-methoxy-5-methylpyridin-4-yl)amino)-5-(trifluoromethyl)pyrimidin-4-yl)amino)phenyl)acrylamide]"
> 7.00,< 100,101 to 500,"C=CC(=O)Nc1cc(OC)ccc1Nc1nc(Nc2cc(OC)ncc2C)ncc1Cl [Compound I-242, N-(2-((5-chloro-2-((2-methoxy-5-methylpyridin-4-yl)amino)pyrimidin-4-yl)amino)-5-methoxyphenyl)acrylamide]"
,101 to 500,101 to 500,"C=CC(=O)Nc1ccccc1Nc1nc(N[C@H]2CCN(C(C)=O)C2)ncc1C(F)(F)F [Compound I-56, (S)—N-(2-((2-((1-Acetylpyrrolidin-3-yl)amino)-5-(trifluoromethyl)pyrimidin-4-yl)amino)phenyl)acrylamide]"
> 7.00,< 100,< 100,"C=CC(=O)Nc1ccccc1Nc1nc(Nc2cc(OC)nc(N3CCCC3)c2)ncc1C(F)(F)F [Compound I-281, N-(2-((2-((2-Methoxy-6-(pyrrolidin-1-yl)pyridin-4-yl)amino)-5-(trifluoromethyl)pyrimidin-4-yl)amino)phenyl)acrylamide]"
> 7.00,< 100,< 100,"C=CC(=O)Nc1ccccc1Nc1nc(Nc2cc(OC)nc(N3CCS(=O)(=O)CC3)c2)ncc1C(F)(F)F [Compound I-291, N-(2-((2-((2-(1,1-Dioxidothiomorpholino)-6-methoxypyridin-4-yl)amino)-5-(trifluoromethyl)pyrimidin-4-yl)amino)phenyl)acrylamide]"
> 7.00,,,"C=CC(=O)Nc1ccccc1Nc1nc(Nc2ccnc(F)c2)ncc1C(F)(F)F [Compound I-287, N-(2-((2-((2-Fluoropyridin-4-yl)amino)-5-(trifluoromethyl)pyrimidin-4-yl)amino)phenyl)acrylamide]"
< 6.00,,,"C=CC(=O)Nc1ccccc1Nc1nc(Nc2cc(F)ccc2C)ncc1C(F)(F)F [Compound I-285, N-(2-((2-((5-Fluoro-2-methylphenyl)amino)-5-(trifluoromethyl)pyrimidin-4-yl)amino)phenyl)acrylamide]"
,101 to 500,> 1000,"C=CC(=O)Nc1cc(C)ccc1Nc1nc(Nc2cc(C(N)=O)ccn2)ncc1Cl [Compound I-238, 2-((4-((2-acrylamido-4-methylphenyl)amino)-5-chloropyrimidin-2-yl)amino)isonicotinamide]"
,< 100,101 to 500,"C=CC(=O)Nc1ccccc1Nc1nc(Nc2cc(Cl)nc(OC)c2)ncc1Cl [Compound I-246, N-(2-((5-chloro-2-((2-chloro-6-methoxypyridin-4-yl)amino)pyrimidin-4-yl)amino)phenyl)acrylamide]"

# Further lines, the compound ahead of its results:
SMILES,pEC50 [1],GI50 [2] [nM],GI50 [3] [nM]
"C=CC(=O)Nc1cc(C)ccc1Nc1nc(Nc2cc(C)nc(OC)c2)ncc1C(F)(F)F [Compound I-295, N-(2-((2-((2-methoxy-6-methylpyridin-4-yl)amino)-5-(trifluoromethyl)pyrimidin-4-yl)amino)-5-methylphenyl)acrylamide]",> 7.00,,
"C=CC(=O)Nc1ccccc1Nc1nc(Nc2cc(OC)nc(OCCOC)c2)ncc1C(F)(F)F [Compound I-283, N-(2-((2-((2-Methoxy-6-(2-methoxyethoxyl)pyridin-4-yl)amino)-5-(trifluoromethyl)pyrimidin-4-yl)amino)phenyl)acrylamide]",> 7.00,< 100,< 100
"C=CC(=O)Nc1cc(C)ccc1Nc1nc(Nc2cc(OC)nc(N3CCN(C)CC3)c2)ncc1C(F)(F)F [Compound I-325, N-(2-((2-((2-methoxy-6-(4-methylpiperazin-1-yl)pyridin-4-yl)amino)-5-(trifluoromethyl)pyrimidin-4-yl)amino)-5-methylphenyl)acrylamide]",6.30 to 7.00,< 100,< 100
"C=CC(=O)Nc1ccccc1Nc1nc(Nc2cc(OC)cc(OC)c2)ncc1C(F)(F)F [Compound I-338, N-(2-((2-((3,5-dimethoxyphenyl)amino)-5-(trifluoromethyl)pyrimidin-4-yl)amino)phenyl)acrylamide]",> 7.00,< 100,< 100
"C=CC(=O)Nc1ccccc1Nc1nc(Nc2cc(OC)nc(N3CCCCC3)c2)ncc1C(F)(F)F [Compound I-282, N-(2-((2-((2-Methoxy-6-(piperidin-1-yl)pyridin-4-yl)amino)-5-(trifluoromethyl)pyrimidin-4-yl)amino)phenyl)acrylamide]",> 7.00,< 100,< 100
"C=CC(=O)Nc1ccccc1Nc1nc(N[C@H]2CCN(S(C)(=O)=O)C2)ncc1C(F)(F)F [Compound I-58, (S)—N-(2-((2-((1-(Methylsulfonyl)pyrrolidin-3-yl)amino)-5-(trifluoromethyl)pyrimidin-4-yl)amino)phenyl)acrylamide]",,101 to 500,101 to 500
"C=CC(=O)Nc1cc(C)ccc1Nc1nc(Nc2cc(OC)cc(OC)c2)ncc1C(F)(F)F [Compound I-339, N-(2-((2-((3,5-dimethoxyphenyl)amino)-5-(trifluoromethyl)pyrimidin-4-yl)amino)-5-methylphenyl)acrylamide]",6.00 to 6.30,< 100,< 100
C=CC(=O)Nc1ccccc1Nc1nc(Nc2cc(N[C@H]3CC[C@@H](O)CC3)nc(OC)c2)ncc1C(F)(F)F [Compound I-292],> 7.00,,< 100
"C=CC(=O)Nc1cc(C)ccc1Nc1nc(Nc2cc(OC)nc(N(C)CCOC)c2)ncc1C(F)(F)F [Compound I-336, N-(2-((2-((2-methoxy-6-((2-methoxyethyl)(methyl)amino)pyridin-4-yl)amino)-5-(trifluoromethyl)pyrimidin-4-yl)amino)-5-methylphenyl)acrylamide]",6.30 to 7.00,< 100,101 to 500
"C=CC(=O)Nc1cc(C)ccc1Nc1nc(Nc2cc(OC)nc(N3CCN(C(C)=O)CC3)c2)ncc1Cl [Compound I-296, N-(2-((2-((2-(4-acetylpiperazin-1-yl)-6-methoxypyridin-4-yl)amino)-5-chloropyrimidin-4-yl)amino)-5-methylphenyl)acrylamide]",> 7.00,< 100,< 100
"C=CC(=O)Nc1cc(C)ccc1Nc1nc(Nc2ccnc(F)c2)ncc1C(F)(F)F [Compound I-288, N-(2-((2-((2-Fluoropyridin-4-yl)amino)-5-(trifluoromethyl)pyrimidin-4-yl)amino)-5-methylphenyl)acrylamide]",6.30 to 7.00,,
"C=CC(=O)Nc1ccccc1Nc1nc(Nc2cc(OC)nc(OC)c2)ncc1C(F)(F)F [Compound I-95, N-(2-((2-((2,6-Dimethoxypyridin-4-yl)amino)-5-(trifluoromethyl)pyrimidin-4-yl)amino)phenyl)acrylamide]",> 7.00,< 100,< 100
"C=CC(=O)Nc1cc(C)ccc1Nc1nc(Nc2cc(OC)ccc2C)ncc1C(F)(F)F [Compound I-341, N-(2-((2-((5-methoxy-2-methylphenyl)amino)-5-(trifluoromethyl)pyrimidin-4-yl)amino)-5-methylphenyl)acrylamide]",< 6.00,,
"C=CC(=O)Nc1ccccc1Nc1nc(N[C@H]2CCN(C(=O)CO)C2)ncc1C(F)(F)F [Compound I-57, (S)—N-(2-((2-((1-(2-Hydroxyacetyl)pyrrolidin-3-yl)amino)-5-(trifluoromethyl)pyrimidin-4-yl)amino)phenyl)acrylamide]",,101 to 500,101 to 500
"C=CC(=O)Nc1cc(C)ccc1Nc1nc(Nc2cc(N[C@H]3CC[C@@H](O)CC3)nc(OC)c2)ncc1C(F)(F)F [Compound I-326, N-(2-((2-((2-((cis-4-hydroxycyclohexyl)amino)-6-methoxypyridin-4-yl)amino)-5-(trifluoromethyl)pyrimidin-4-yl)amino)-5-methylphenyl)acrylamide]",> 7.00,,< 100
"C=CC(=O)Nc1ccccc1Nc1nc(N[C@@H]2CCN(C(C)=O)C2)ncc1C(F)(F)F [Compound I-60, (R)—N-(2-((2-((1-Acetylpyrrolidin-3-yl)amino)-5-(trifluoromethyl)pyrimidin-4-yl)amino)phenyl)acrylamide]",,101 to 500,501 to 999
"C=CC(=O)Nc1ccccc1Nc1nc(N[C@H]2CCCN(C(C)=O)C2)ncc1Cl [Compound I-115, (S)—N-(2-((2-((1-acetylpiperidin-3-yl)amino)-5-chloropyrimidin-4-yl)amino)phenyl)acrylamide]",,< 100,101 to 500
"C=CC(=O)Nc1cc(OC)ccc1Nc1nc(Nc2cc(Cl)nc(OC)c2)ncc1Cl [Compound I-245, N-(2-((5-chloro-2-((2-chloro-6-methoxypyridin-4-yl)amino)pyrimidin-4-yl)amino)-5-methoxyphenyl)acrylamide]",,101 to 500,101 to 500
"C=CC(=O)Nc1ccccc1Nc1nc(N[C@H]2CCN(C(=O)OC)C2)ncc1C(F)(F)F [Compound I-59, (S)-methyl 3-((4-((2-Acrylamidophenyl)amino)-5-(trifluoromethyl)pyrimidin-2-yl)amino)pyrrolidine-1-carboxylate]",,101 to 500,501 to 999
